From US20170071976A1, “PHARMACEUTICAL SOLUTION HAVING ANTI-TUMOR EFFECT-ENHANCING AND TOXICITY-REDUCING EFFECT, AND PHARMACEUTICAL COMPOSITION COMPRISING SAME” (priority 2014, published 2017)
Values joined by “and” are separate entries in the source; they are usually repeats but may differ in a detail not shown here. Equal entries are not always repeated. Marks after values point to notes of the source that are not given here.

Assays:
[1] = test system: human colon cancer HCT-116 cells; assay: Cell invasion assayed by Transwell; format: cell-based; settings: for Number of cells (HCT-116): invaded cells, control 65.0 ± 12.0; for Number of cells: invaded HCT-116 cells, control 76.0 ± 4.6
Method: Inhibition of invasion of human colon cancer HCT-116 cells and human lung cancer A549 cells by deuterium oxide in combination with 5-fluorouracil or gemcitabine (by the Transwell method)
(§1) 1.1. Warm water at 37° C. to 40° C. was prepared, a cryogenic vial was taken out of liquid nitrogen and immediately put into the 37° C.-40° C. warm water, followed by vigorous shaking until the cryogenic liquid was completely thawed; 1.2. The suspension of cryogenic cells was transferred to a centrifugal tube, 5 ml culture medium was added thereto, and the cells were well mixed in the medium by gentle pipetting; 1.3. The cell suspension was centrifuged at 800 to 1,000 rpm for 5 min, and the supernatant was discarded; 1.4. A complete culture medium was added to the cell pellet which was well mixed by gentle pipetting, the cell suspension was transferred to a culture flask, and the cells were cultured by supplementing culture medium.
1. […] After incubation of cells with the test drugs for 24 hours, serum was removed, and the cells were incubated under starvation with an incomplete culture medium for 24 hours; 3. Matrigel was placed at 4° C. in advance to thaw overnight; 4. Thawed Matrigel was 1:1 diluted with the incomplete culture medium, 30 μl diluted Matrigel was added to the upper compartment of Transwell and incubated at 37° C. for 120 min to gel the Matrigel; 5. Cells from different groups were digested, counted, and then adjusted to a density of 1×10^5 cells/ml with the incomplete culture medium, 100 μl cell suspension was added to the upper compartment (small compartment) of Transwell, and 500 μl medium containing 20% FBS was added to the lower compartment of Transwell; 6. A 24-well cell culture plate was placed in an incubator at 37° C. and 5% CO2 to culture the cells for 24 hours; 7. Cell counting: cells in the Matrigel and the upper compartment were wiped off with a cotton swab, the Transwell was removed, followed by inversion and air drying, 500 μl medium containing 0.1% crystal violet was added to the 24-well plate, the small compartment was placed in the medium to allow the membrane to be immersed in the dye, removed after holding at 37° C. for 30 min, washed with PBS, and photographed in 3 fields along the diameter (200× magnification) for cell counting. 8. The assay was repeated one more time.

[2] = test system: human colon cancer HCT-116 cells; assay: Cell cycle by PI single staining (flow cytometry); format: cell-based; settings: 72 hours
Method: Effect of deuterium oxide on the cell cycle of human lung cancer A549 cells and human colon cancer HCT-116 cells
A KGA511 Cell cycle assay kit was provided by NANJING KEYGEN BIOTECH. CO., LTD.
The flow cytometer was FACS Calibur provided by Becton-Dickinson, US.
as §1, with “vial of cells” for “vial”
2.1. The original culture medium was removed by pipetting when the cell coverage reached 80% to 90% in the culture bottle; 2.2. A suitable amount of trypsin (0.25%) was added to digest for 1 to 2 min; 2.3. When all the cells became round, an equal volume of culture medium containing serum was added to cease the digestion; 2.4. The cells were blown by pipetting to suspend, then drawn into a 15 ml centrifugal tube, and centrifuged at 1000 rpm for 5 min; 2.5. The supernatant was discarded, and the cells were re-suspended in 1 to 2 ml culture medium and transferred to a culture bottle for further culturing.
1. Cells growing in the exponential phase were digested and inoculated to a 6-well plate; on the next day, after the cells attached to the wall, cell culture media containing corresponding test drugs were added according to different groups, and a negative control group was also set; 2. After treatment with test drugs for 72 hours, cells were digested with 0.25% pancreatin (EDTA-free) and collected; 3. The cells were washed with PBS once (centrifuged at 2,000 rpm for 5 min), and 5×10^5 cells were collected; 4. The prepared suspension of individual cells was fixed with 70% (v/v) ethanol for 2 hours (or overnight), and stored at 4° C.; before staining, the fixing solution was washed away with PBS (if necessary, the cell suspension was filtered once through a 200-mesh screen); 5. 100 μl RNase A was added, and the cells were water-bathed at 37° C. for 30 min; 6. 400 μl PI was added and well mixed for staining, and the cells were kept at 4° C. in darkness for 30 min; 7. In a detection apparatus, red fluorescence with an excitation wavelength of 488 nm was recorded.

[3] = test system: xenograft tumors from human colon cancer HCT-116 cells; assay: HCT-116 xenograft in nude mice, intravenous deuterium oxide in combination with 5-fluorouracil; format: in vivo, BALB/c nude mice; settings: for Inhibition (%): tumor weight
Method: Ltd. Cell lines: human colon cancer cells HCT-116 were provided by NANJING […] BIOTECH. CO., LTD. […] Bone marrow nucleated cells were isolated by a routine method, DNA was extracted from the cells, the OD value was measured in a UV-260 spectrometer as a representative of the DNA content, and inhibition of DNA synthesis by the test samples was observed. The test used 7 groups in total, with 8 animals per group. […] Tumor volume (TV) was calculated by the following equation: […] From the measurements, relative tumor volume (RTV) was calculated by the following equation: RTV=Vt/V0 Relative tumor growth ratio T/C (%) was calculated by the following equation: Criteria of efficacy evaluation: […] T/C %≦40% and statistically P<0.05, efficacious. Inhibition of tumor growth (%) was calculated by the following equation: Criteria of efficacy evaluation: […] The mean value was expressed in X±SD. Inter-group analysis was statistically performed with t test. The results were statistically analyzed using SPSS (Statistical Package for the Social Science) 17.0.

malignant tumors = settings: as a single drug in clinical settings; cited from earlier work
[4] = 5-FU(H) 30 mg/kg × 11, tail vein
[5] = 5-FU(L) 12 mg/kg × 11, tail vein

[2H]O[2H] [Deuterium oxide]
Number of cells (HCT-116) ([1]; deuterium oxide 1.8% (v/v)): 29.3 ± 5.1
Number of cells (HCT-116) ([1]; deuterium oxide 7.5% (v/v)): 3.7 ± 0.6
Number of cells (HCT-116) ([1]; deuterium oxide 15% (v/v)): 3.0 ± 1.0
Number of cells (HCT-116) ([1]; deuterium oxide 30% (v/v)): 1.70 ± 0.6
Number of cells (HCT-116) ([1]; deuterium oxide […] (v/v)): 16.3 ± 3.2
G2 Phase ([2]; deuterium oxide 30% v/v, control 8.06 ± 1.89): 4.21 ± 0.95%
S Phase ([2]; deuterium oxide 30% v/v, control 9.40 ± 1.83): 6.61 ± 1.41%
G1 Phase ([2]; deuterium oxide 30% v/v, control 82.53 ± 1.76): 89.19 ± 3.81%

O=c1[nH]cc(F)c(=O)[nH]1 [Example 5-FU, 5-fluorouracil]
Number of cells ([1]; 5-FU 0.195 ug/ml in NS): 66.0 ± 2.6
Number of cells ([1]; 5-FU 0.39 ug/ml in NS): 47.3 ± 4.0
Number of cells ([1]; 5-FU 0.78 ug/ml in NS): 31.3 ± 1.5
Number of cells ([1]; 5-FU 1.56 ug/ml in NS): 23.0 ± 4.6
Number of cells ([1]; 5-FU 3.125 ug/ml in NS): 12.0 ± 2.0
Number of cells ([1]; 5-FU 6.25 ug/ml in NS): 10.7 ± 1.5
Number of cells ([1]; 5-FU 12.5 ug/ml in NS): 6.3 ± 0.6
Body weight (g) End, given as change [3, 4]: -1.0 g
Body weight (g) Initial [3, 4]: 18.4 ± 0.5 g and 18.4 g
Bone marrow DNA content (OD) [3, 4]: 0.836 ± 0.5023 OD
Tumor weight [3, 4]: 1.04 ± 0.13 g
Body weight (g) End, given as change [3, 5]: -0.6 g
Body weight (g) Initial [3, 5]: 18.0 g
Bone marrow DNA content (OD) [3, 5]: 0.897 ± 0.3783 OD
Tumor weight [3, 5]: 2.23 ± 0.2 g
tumor volume ([3]; 21 days after administration, low-dose 5-FU alone): 2.27±0.30 cm^3
body weight at end ([3]; high-dose 5-FU positive control): 17.4 ± 0.5 g
T/C (relative tumor growth ratio) ([3]; low-dose 5-FU alone, vs negative control): 80.91%
Inhibition (%) [3, 4]: 64.38%*
Inhibition (%) [3, 5]: 23.64% and 23.63%
G1 Phase ([2]; 5-FU 12.5 ug/ml in NS): 32.69 ± 8.66%
G2 Phase ([2]; 5-FU 12.5 ug/ml in NS): 41.24 ± 2.97%
S Phase ([2]; 5-FU 12.5 ug/ml in NS): 26.07 ± 11.32%
overall response rate (malignant tumors): 10%
